# From US10548871B2, “Low-dose doxepin formulations and methods of making and using the same” (Pernix Sleep, Inc., priority 2007, dated 2020)
# Structures can show the parent of a compound that is named as a salt.
# Legend:
# [1] = Biopharmaceutic Classification System; cited from earlier work
# [2] = Pharmacokinetic performance of low dose doxepin capsules and tablets in healthy adult volunteers, crossover design; type: in vivo, human; details: majority of subjects
# Procedure: The pharmacokinetic performance of oral, low dose doxepin formulations is well suited to the treatment of insomnia. The pharmacokinetic performance of capsules containing 1, 3 or 6 mg doxepin, as well as tablets containing 6 mg doxepin, was evaluated in healthy adult volunteers under a crossover design.
# Of further interest to the pharmacokinetic performance of these doxepin formulations was the time necessary to reach certain plasma concentrations. Reaching particular concentrations in plasma can play a role in establishing therapeutic benefit. In particular, doxepin concentrations in plasma reach 0.05 ng/mL in the majority of subjects for all doses within 90 minutes after dosing. […] Such pharmacokinetic performance is beneficial in the treatment of insomnia, as reaching measurable plasma concentrations in a timely manner can be preferred for facilitating the onset of sleep.
# adult insomnia patients = assay: Polysomnographic endpoints in adult insomnia patients treated with 3 mg doxepin
time after dosing to reach plasma concentration of 0.1 ng/mL ([2]; 3 and 6 mg doses) [min],time after dosing for doxepin plasma concentration to reach 0.05 ng/mL ([2]; all doses) [min],SMILES,solubility [1],maintenance of sleep (adult insomnia patients),residual sedation (adult insomnia patients),"sleep onset, on average, after bedtime (adult insomnia patients; polysomnographic endpoint) [min]"
–,–,"CN(C)CCC=C1c2ccccc2COc2ccccc21 [doxepin HCl, Doxepin HCl]",high solubility,–,–,–
≤ 60,≤ 90,CN(C)CCC=C1c2ccccc2COc2ccccc21 [doxepin],–,persisted throughout the entire night (8 hours),not followed by residual sedation,27
